{
  "source": "patent US20260256742A1",
  "about": "“ANDROGEN RECEPTOR ANTAGONISTS FOR THE TREATMENT OF PATIENTS WITH BIOCHEMICAL RECURRENCE OF HORMONE SENSITIVE PROSTATE CANCER” (BAYER CONSUMER CARE AG, priority 2023, published 2026)",
  "key": {"[1]": {"system": "nine CYP isoforms", "test": "in vitro CYP inhibition", "assay_type": "in vitro ADME", "details": "rank order and mechanistic static assessment"}, "[2]": {"system": "prostate cancer cells rendered castration resistant via overexpression of AR", "details": "cited from earlier work"}, "[3]": {"details": "rats; cited from earlier work"}, "[4]": {"target": "Cytochrome P450 (CYP)3A4 (Homo sapiens, UniProt P08684)", "sequence (P08684 whole entry)": "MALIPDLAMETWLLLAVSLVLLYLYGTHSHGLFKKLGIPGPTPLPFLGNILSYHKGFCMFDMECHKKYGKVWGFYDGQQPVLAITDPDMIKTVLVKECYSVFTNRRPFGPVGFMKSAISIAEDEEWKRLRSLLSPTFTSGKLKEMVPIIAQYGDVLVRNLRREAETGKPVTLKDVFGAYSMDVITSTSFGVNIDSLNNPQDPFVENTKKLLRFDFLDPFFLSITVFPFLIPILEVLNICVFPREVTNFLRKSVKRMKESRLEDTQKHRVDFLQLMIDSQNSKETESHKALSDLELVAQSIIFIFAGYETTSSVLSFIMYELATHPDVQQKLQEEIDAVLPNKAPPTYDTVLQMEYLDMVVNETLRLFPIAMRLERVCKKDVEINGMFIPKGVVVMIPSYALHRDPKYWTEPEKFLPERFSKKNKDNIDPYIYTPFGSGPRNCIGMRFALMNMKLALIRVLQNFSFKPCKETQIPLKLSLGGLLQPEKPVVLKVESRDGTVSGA", "details": "in vitro; cited from earlier work"}, "[5]": {"target": "T1, multidrug and toxin extrusion (MATE)1 (Homo sapiens, UniProt Q96FL8)", "T1 sequence (Q96FL8 1-570)": "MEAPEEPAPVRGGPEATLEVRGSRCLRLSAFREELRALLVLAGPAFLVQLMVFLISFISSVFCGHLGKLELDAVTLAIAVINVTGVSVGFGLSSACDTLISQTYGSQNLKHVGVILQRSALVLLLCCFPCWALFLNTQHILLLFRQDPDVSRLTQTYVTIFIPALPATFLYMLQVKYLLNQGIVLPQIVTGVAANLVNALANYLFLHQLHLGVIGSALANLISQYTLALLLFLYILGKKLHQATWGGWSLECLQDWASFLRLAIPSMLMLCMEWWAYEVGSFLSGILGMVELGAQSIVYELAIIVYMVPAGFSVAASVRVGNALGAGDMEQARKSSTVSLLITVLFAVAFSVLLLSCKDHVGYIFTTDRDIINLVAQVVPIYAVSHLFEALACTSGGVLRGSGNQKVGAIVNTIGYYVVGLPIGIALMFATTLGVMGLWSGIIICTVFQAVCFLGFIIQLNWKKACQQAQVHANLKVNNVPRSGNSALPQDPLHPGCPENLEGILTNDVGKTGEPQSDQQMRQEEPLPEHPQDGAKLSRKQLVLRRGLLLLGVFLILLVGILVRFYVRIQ", "details": "in vitro; cited from earlier work"}, "[6]": {"target": "MATE2-K (Homo sapiens, UniProt Q86VL8)", "sequence (Q86VL8 1-566 isoform Q86VL8-3)": "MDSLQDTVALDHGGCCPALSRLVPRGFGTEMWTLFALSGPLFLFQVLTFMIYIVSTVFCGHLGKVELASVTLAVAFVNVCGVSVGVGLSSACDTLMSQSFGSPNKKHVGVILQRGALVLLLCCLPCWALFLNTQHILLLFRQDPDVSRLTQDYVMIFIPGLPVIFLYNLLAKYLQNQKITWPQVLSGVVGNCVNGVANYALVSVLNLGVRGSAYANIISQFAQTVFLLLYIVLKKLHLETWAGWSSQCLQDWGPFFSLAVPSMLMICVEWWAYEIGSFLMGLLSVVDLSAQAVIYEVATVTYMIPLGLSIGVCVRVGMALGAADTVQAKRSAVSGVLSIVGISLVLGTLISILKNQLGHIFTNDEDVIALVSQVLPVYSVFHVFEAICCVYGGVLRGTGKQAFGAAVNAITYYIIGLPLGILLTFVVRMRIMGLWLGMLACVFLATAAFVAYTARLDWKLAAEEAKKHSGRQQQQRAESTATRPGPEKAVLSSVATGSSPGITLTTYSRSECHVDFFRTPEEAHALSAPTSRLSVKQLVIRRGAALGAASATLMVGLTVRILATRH", "details": "in vitro; cited from earlier work"}, "[7]": {"target": "T2, organic anion-transporting polypeptide (OATP)1B1 (Homo sapiens, UniProt Q9Y6L6)", "T2 sequence (Q9Y6L6 1-691)": "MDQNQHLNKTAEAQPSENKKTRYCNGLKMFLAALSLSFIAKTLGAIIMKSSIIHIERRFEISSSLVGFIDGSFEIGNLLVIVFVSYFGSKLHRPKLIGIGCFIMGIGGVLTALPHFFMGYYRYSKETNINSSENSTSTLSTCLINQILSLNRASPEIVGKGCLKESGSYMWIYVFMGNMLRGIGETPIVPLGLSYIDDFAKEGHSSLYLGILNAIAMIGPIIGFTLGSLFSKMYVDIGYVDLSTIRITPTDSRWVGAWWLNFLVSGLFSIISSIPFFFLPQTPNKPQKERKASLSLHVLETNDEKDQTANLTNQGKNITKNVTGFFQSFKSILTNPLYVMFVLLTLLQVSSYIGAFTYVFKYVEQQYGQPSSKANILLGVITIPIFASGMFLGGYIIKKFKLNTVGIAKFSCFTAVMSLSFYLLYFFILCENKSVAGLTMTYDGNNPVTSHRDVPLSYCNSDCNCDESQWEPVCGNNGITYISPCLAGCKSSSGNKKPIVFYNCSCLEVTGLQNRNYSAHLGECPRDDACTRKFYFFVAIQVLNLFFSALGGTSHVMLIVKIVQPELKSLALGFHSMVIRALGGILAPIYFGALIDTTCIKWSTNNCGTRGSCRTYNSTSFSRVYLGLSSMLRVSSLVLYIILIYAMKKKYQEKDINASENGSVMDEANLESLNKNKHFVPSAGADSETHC", "details": "in vitro; cited from earlier work"}, "[8]": {"system": "nmCRPC", "details": "in combination with ADT, patients with nmCRPC; cited from earlier work"}, "[9]": {"details": "in vitro and in vivo; cited from earlier work"}},
  "data": [
    {"smiles": "CC(O)c1cc(C(=O)N[C@@H](C)Cn2ccc(-c3ccc(C#N)c(Cl)c3)n2)[nH]n1", "note": "(some centres unmarked) [Darolutamide]", "values": [
      {"measurement": "risk of clinically relevant DDIs via CYP inhibition", "setting": "[1]", "value": "very low"},
      {"measurement": "agonist activity with AR overexpression", "setting": "[2]", "value": "lacks the partial agonist activity"},
      {"measurement": "absorption", "setting": "[3]", "value": "complete and rapid absorption"},
      {"measurement": "bioavailability", "setting": "[3]", "value": "high bioavailability"},
      {"measurement": "main metabolic pathway", "setting": "[4]", "value": "mainly metabolized via oxidative biotransformation catalyzed by Cytochrome P450 (CYP)3A4"},
      {"measurement": "inhibition of MATE1-mediated transport", "setting": "[5]", "value": "observed"},
      {"measurement": "inhibition of MATE2-K-mediated transport", "setting": "[6]", "value": "observed"},
      {"measurement": "inhibition of OATP1B1-mediated transport", "setting": "[7]", "value": "observed"},
      {"measurement": "metastatic free survival (MFS)", "setting": "[8]", "value": "significantly increased"},
      {"measurement": "overall survival (OS)", "setting": "[8]", "value": "significantly increased"},
      {"measurement": "interconversion of the diastereoisomers (S,R)- and (S,S)- via keto-darolutamide", "setting": "[9]", "value": "Rapid interconversion"}
    ]}
  ]
}
